Measurements: US20240246969A1, “HETEROCYCLIC DERIVATIVES AS CAMKK2 INHIBITORS” (Bristol-Myers Squibb Company, priority 2021, published 2024)
Read-outs that look alike come from different tables or passages of the source. One block for each compound: values may come before it.

Key:
CaMKK2 = CaMKK2 (Homo sapiens, UniProt Q96RR4); assay: CaMKK2 binding assay (LanthaScreen TR-FRET)
Experimental: The ability of test compounds to bind and inhibit the activity of CaMKK2 were determined using a binding assay using LanthaScreent (Thermofisher) detection reagents in a 384-well plate format using the following assay buffer: 50 mM HEPES (pH7.5), 10 mM MgCl2, 1 mM EGTA, and 0.01% Brij-35.
A 10-point serial dilution of inhibitor compound in 0.5% DMSO was added to each well of the plate. The final assay volume in well was 15 uL. […] A ratio was calculated from the 2 readouts and fitted to a 4-parameter fit to determine the binding IC50.

[1] = tested on: phosphorylation of CaMKK2 substrate AMPK at Thr172 in A549 lung carcinoma cells; assay: Cell-based phosphorylation assay (Phospho-AMPK Thr172 HTRF); conditions: Homo sapiens; for EC50: A549, read-out: A549 pAMPK MOA EC50; for IC50: A549 cells, compounds 4 hours, 3 uM Calcium Ionophore 30 minutes, read-out: Cellular IC50 Phosphorylation
Experimental: Cellular CaMKK2 inhibition by compounds was measured by monitoring the phosphorylation of CaMKK2 substrate AMPK at Thr172 in A549 lung carcinoma cells (ATCC) using CISBIO Phospho-AMPK (Thr172) HTRF kit. A549 cells were plated in 96 well plates at 8000 cells/well in DMEM+10% FBS+1× pen/step+1×NEAA and incubated at 37° C. overnight in a CO2 incubator. Cells were then treated with compounds for 4 hours. After cells were stimulated by 3 uM Calcium Ionophore (Sigma) at 37° C. for 30 minutes, cells were washed and then lysed with cell lysis buffer (CisBio) for 30 minutes. […] Plates were incubated overnight and then read using HTRF mode by BMG PHERAstarFS.

CaMKK1 = CaMKK1 (Homo sapiens, UniProt Q8N5S9); assay: CaMKK1 IC50; type: binding
KSP (72) kinases = tested on: KSP (72) kinases; parameters: dose or concentration left out as unconfirmed; conditions: of 72 kinases
pAMPK in A427 = assay: A427 pAMPK MOA assay; type: cell-based; conditions: Homo sapiens, A-427
PPB, mouse (m) = type: in vitro ADME; conditions: plasma, first value of (m, h)
PPB, human (h) = type: in vitro ADME; conditions: plasma, second value of (m, h)
[2] = Microsomes stability, mouse (m); type: in vitro ADME; conditions: first value of (m, h)
[3] = Microsomes stability, human (h); type: in vitro ADME; conditions: second value of (m, h)
PK = conditions: in vivo; read-out: PK % F
CYP450 = CYP450 inhibition; type: in vitro ADME; conditions: all isoforms except 2C9
2C9 = 2C9 (Homo sapiens, UniProt P11712); assay: CYP450 2C9 inhibition; type: in vitro ADME
CEREP = CEREP panel; conditions: @ 10 uM
[4] = tested on: A549 lung carcinoma cells; assay: Cell proliferation assay (CellTiter 96 Aqueous); type: cell-based; conditions: Homo sapiens, compounds 48 hours, read-out: Cellular IC50 Proliferation
Experimental: Proliferation was measured using CellTiter 96 Aqueous Non-Radioactive Cell Proliferation Assay Kit (Promega), which determines the number of viable cells in culture based on quantitation of dehydrogenase enzymes, as an indicator of metabolically active cells. A549 lung carcinoma cells were seeded at 2,000 cells/well in a 96-well tissue culture treated plate in DMEM+10% FBS+1× pen/step+1×NEAA and incubated at 37° C. overnight in a CO2 incubator. Cells were treated with compounds for 48 hours. Then viability was measured using CellTiter 96 Aqueous Non-Radioactive Cell Proliferation Assay Kit (Promega). Detection was performed using Biotek Cytation 5 Cell Imaging Multi Mode plate reader.

Sequence of CaMKK2 (Q96RR4 whole entry): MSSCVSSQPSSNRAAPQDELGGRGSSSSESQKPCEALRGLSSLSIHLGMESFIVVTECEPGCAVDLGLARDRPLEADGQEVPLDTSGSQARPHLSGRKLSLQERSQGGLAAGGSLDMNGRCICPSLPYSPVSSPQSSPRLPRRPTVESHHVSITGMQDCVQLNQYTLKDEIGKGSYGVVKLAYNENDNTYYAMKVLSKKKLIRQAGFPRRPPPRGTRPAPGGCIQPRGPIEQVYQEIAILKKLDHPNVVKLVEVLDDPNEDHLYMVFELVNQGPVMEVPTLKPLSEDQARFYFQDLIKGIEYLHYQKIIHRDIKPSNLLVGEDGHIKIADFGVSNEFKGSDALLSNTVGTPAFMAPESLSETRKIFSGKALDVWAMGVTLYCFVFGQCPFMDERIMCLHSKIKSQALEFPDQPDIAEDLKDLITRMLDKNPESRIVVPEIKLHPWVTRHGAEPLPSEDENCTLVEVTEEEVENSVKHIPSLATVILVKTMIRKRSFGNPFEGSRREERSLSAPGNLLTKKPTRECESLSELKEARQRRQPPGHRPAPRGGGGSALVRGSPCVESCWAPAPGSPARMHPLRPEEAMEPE
Sequence of CaMKK1 (Q8N5S9 whole entry, species assumed): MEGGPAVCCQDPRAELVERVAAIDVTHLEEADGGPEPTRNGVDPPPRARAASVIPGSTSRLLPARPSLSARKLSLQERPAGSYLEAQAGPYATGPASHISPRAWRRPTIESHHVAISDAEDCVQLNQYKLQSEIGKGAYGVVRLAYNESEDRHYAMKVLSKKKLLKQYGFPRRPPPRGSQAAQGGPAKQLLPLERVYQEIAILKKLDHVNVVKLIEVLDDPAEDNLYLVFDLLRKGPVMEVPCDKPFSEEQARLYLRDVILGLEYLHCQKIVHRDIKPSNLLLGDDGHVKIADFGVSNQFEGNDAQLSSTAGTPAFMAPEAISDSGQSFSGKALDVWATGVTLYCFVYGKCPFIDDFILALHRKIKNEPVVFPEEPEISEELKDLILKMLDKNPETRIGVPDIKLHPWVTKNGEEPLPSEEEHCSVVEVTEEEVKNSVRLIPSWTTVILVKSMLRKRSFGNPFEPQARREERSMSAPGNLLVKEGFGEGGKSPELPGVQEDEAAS
Sequence of 2C9 (P11712 whole entry): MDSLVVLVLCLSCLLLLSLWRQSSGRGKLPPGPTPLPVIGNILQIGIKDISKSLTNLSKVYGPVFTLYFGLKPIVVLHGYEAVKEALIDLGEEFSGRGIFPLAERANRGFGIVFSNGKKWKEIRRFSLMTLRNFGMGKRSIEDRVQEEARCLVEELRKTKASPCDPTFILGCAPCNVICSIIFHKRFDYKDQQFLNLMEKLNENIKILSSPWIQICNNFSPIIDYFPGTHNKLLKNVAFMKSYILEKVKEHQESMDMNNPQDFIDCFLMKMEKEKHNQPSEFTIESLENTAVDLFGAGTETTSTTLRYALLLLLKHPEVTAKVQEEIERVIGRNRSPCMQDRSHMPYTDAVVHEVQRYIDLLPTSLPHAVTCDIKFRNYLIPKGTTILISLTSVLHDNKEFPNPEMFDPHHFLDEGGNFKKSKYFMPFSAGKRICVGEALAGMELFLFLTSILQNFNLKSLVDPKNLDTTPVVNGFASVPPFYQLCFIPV

Structure (SMILES): CCOc1ccc2c(-c3ccc(C(=O)O)c(C4CCCC4)c3)ncnc2c1 [Example 5.1, 2-cyclopentyl-4-(7-ethoxyquinazolin-4-yl)benzoic acid]
EC50 (pAMPK in A427): 74 nM
CYP450 (CYP450): > 30 µM
CYP450 2C9 (2C9): 2C9 (4 mM)
fraction unbound (PPB, mouse (m)): 0.015
fraction unbound (PPB, human (h)): 0.01
Microsomes (m) Stability60 [2]: Stability60: 96, %
Microsomes (m) UGT [2]: 79%
Microsomes (h) Stability60 [3]: 100%
Microsomes (h) UGT [3]: 89%
bioavailability (PK): 80%
CEREP (CEREP): no inhibition >50%

Structure (SMILES): Cc1cc(C)cc(-c2cnc3ccn(-c4ccc(C(=O)O)c(OC5CNC5)c4)c3n2)c1 [Example 24, 2-(azetidin-3-yloxy)-4-(3-(3,5-dimethylphenyl)-5H-pyrrolo[2,3-b]pyrazin-5-yl)benzoic Acid]
IC50 (CaMKK2): 100 to 1000 nM
IC50 [1]: < 100 nM
IC50 [4]: > 10 µM

Structure (SMILES): O=C(O)c1ccc(-n2ccc3ncc(-c4ccccc4)nc32)cc1C1CCCC1 [Example 1, 2-Cyclopentyl-4-(3-phenylpyrrolo[2,3-b]pyrazin-5-yl)benzoic Acid]
IC50 (CaMKK2): < 100 nM
IC50 [1]: < 100 nM
IC50 [4]: > 10 µM

Structure (SMILES): CCNc1cc(-n2ccc3ncc(-c4ccccc4)nc32)ccc1C(=O)O [Example 5, 2-(Ethylamino)-4-(3-phenylpyrrolo[2,3-b]pyrazin-5-yl)benzoic Acid]
IC50 (CaMKK2): < 100 nM
IC50 [1]: 100 to 1000 nM
IC50 [4]: > 10 µM

Structure (SMILES): O=C(O)c1ccc(-n2ccc3ncc(-c4ccccc4)nc32)cc1NCC1CC1 [Example 6, 2-((Cyclopropylmethyl)amino)-4-(3-phenyl-5H-pyrrolo[2,3-b]pyrazin-5-yl)benzoic Acid]
IC50 (CaMKK2): < 100 nM
IC50 [1]: 100 to 1000 nM
IC50 [4]: > 10 µM

Other lines, results leading:

IC50 (CaMKK2; Table 8): 1.1 nM
EC50 [1]: 79 nM
IC50 (CaMKK1): 1.7 nM
Kinase Selectivity KSP (72) (KSP (72) kinases): 6 of 72 @
Structure (SMILES): CCOc1ccc2c(-c3ccc(C(=O)O)c(C(C)C)c3)c(F)cnc2c1 [Example 5.4, 4-(7-ethoxy-3-fluoroquinolin-4-yl)-2-isopropylbenzoic acid]

IC50 (CaMKK2; Table 8): 1.5 nM
EC50 [1]: 60 nM
IC50 (CaMKK1): 1.7 nM
EC50 (pAMPK in A427): 30 nM
fraction unbound (PPB, mouse (m)): < 0.01
fraction unbound (PPB, human (h)): < 0.01
Microsomes (m) CYP/UGT60 [2]: CYP/UGT60: 66, %
Microsomes (h) CYP/UGT60 [3]: 67%
bioavailability (PK): 58%
Kinase Selectivity KSP (72) (KSP (72) kinases): 6 of 72 @
Structure (SMILES): CCOc1ccc2c(-c3ccc(C(=O)O)c(C4CCCC4)c3)ccnc2c1 [Example 5.3, 2-cyclopentyl-4-(7-ethoxyquinolin-4-yl)benzoic acid]

IC50 (CaMKK1): 12 nM
Structure (SMILES): CCOc1cc(F)c2c(-c3ccc(C(=O)O)c(C4CCCC4)c3)ncnc2c1 [Example 5.2, 2-cyclopentyl-4-(7-ethoxy-5-fluoroquinazolin-4-yl)benzoic acid]

IC50 (CaMKK2): < 100 nM
IC50 [1]: 100 to 1000 nM
IC50 [4]: > 10 µM
Structure (SMILES): O=C(O)c1ccc(-c2ccnc3cc(-c4cccc(OCC5CC5)c4)nn23)cc1C1CCCC1 [Example 2.11, 2-Cyclopentyl-4-(2-(3-(cyclopropylmethoxy)phenyl)pyrazolo[1,5-a]pyrimidin-7-yl)benzoic Acid]

IC50 (CaMKK2): < 100 nM
IC50 [1]: 100 to 1000 nM
IC50 [4]: > 10 µM
Structure (SMILES): O=C(O)c1ccc(-c2ccnc3cc(-c4ccccc4)nn23)cc1C1CCCC1 [Example 2.2, 2-Cyclopentyl-4-(2-phenylpyrazolo[1,5-a]pyrimidin-7-yl)benzoic Acid]
